Results as given in ChEMBL document CHEMBL1201862, “PubChem BioAssay data set” (2004).
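Test compounds were applied to cells in 96-well plates for 48 hours at 5 doses. GI50 is the concentration that inhibits growth by half.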 Activity calls are given as the source filed them. Rule as the data show it: active = GI50 up to about 1.1 µM and inactive = higher.

Assays:
Experiment in all cases: inhibition of tumour cell growth, NCI panel, 48 h
UACC-62 = tested on: UACC-62
OVCAR-8 = tested on: OVCAR-8
MOLT-4 = tested on: MOLT-4
LXFL 529 = tested on: LXFL 529
OVCAR-3 = tested on: OVCAR-3
DLD-1 = tested on: DLD-1
XF498 = tested on: XF498
RPMI-8226 = tested on: RPMI-8226
SK-MEL-5 = tested on: SK-MEL-5
IGROV-1 = tested on: IGROV-1
SF-268 = tested on: SF-268
TK-10 = tested on: TK-10
EKVX = tested on: EKVX
NCI-H460 = tested on: NCI-H460
DMS-273 = tested on: DMS-273
SR = tested on: SR
SNB-75 = tested on: SNB-75
HL-60 = tested on: HL-60
A498 = tested on: A498
A549 = tested on: A549
DMS-114 = tested on: DMS-114
U-251 = tested on: U-251
SK-MEL-28 = tested on: SK-MEL-28
LOX IMVI = tested on: LOX IMVI
SF-539 = tested on: SF-539
NCI-H226 = tested on: NCI-H226
ACHN = tested on: ACHN
NCI-H23 = tested on: NCI-H23
RXF 393 = tested on: RXF 393
Malme-3M = tested on: Malme-3M
SF-295 = tested on: SF-295
SW-620 = tested on: SW-620
CCRF-CEM = tested on: CCRF-CEM
K562 = tested on: K562
HCC 2998 = tested on: HCC 2998
HCT-116 = tested on: HCT-116
M14 = tested on: M14
KM-20L2 = tested on: KM-20L2
786-0 = tested on: 786-0
SK-MEL-2 = tested on: SK-MEL-2
OVCAR-4 = tested on: OVCAR-4
HOP-62 = tested on: HOP-62
COLO 205 = tested on: COLO 205
HT-29 = tested on: HT-29
SN12C = tested on: SN12C
UACC-257 = tested on: UACC-257
HCT-15 = tested on: HCT-15
UO-31 = tested on: UO-31
SNB-19 = tested on: SNB-19
SK-OV-3 = tested on: SK-OV-3
HOP-18 = tested on: HOP-18
CAKI-1 = tested on: CAKI-1
OVCAR-5 = tested on: OVCAR-5
KM12 = tested on: KM12
M19-MEL = tested on: M19-MEL
HOP-92 = tested on: HOP-92
NCI-H522 = tested on: NCI-H522

Q: For `CCOC(=O)C(C(CC(=O)OC)NC(=O)OCc1ccccc1)C1(C)OCCO1` (stereo not drawn), which GI50 (UACC-62) is on record?
A: > 100 µM (inactive)

Q: And the GI50 (OVCAR-8)?
A: > 100 µM (inactive)

Q: And the GI50 (MOLT-4)?
A: > 100 µM (inactive)

Q: What about the GI50 (LXFL 529) of the same compound?
A: > 100 µM (inactive)

Q: And the GI50 (OVCAR-3)?
A: > 100 µM (inactive)

Q: And the GI50 (DLD-1)?
A: > 100 µM (inactive)

Q: And the GI50 (XF498)?
A: 61.4 µM (inactive)

Q: What about the GI50 (RPMI-8226) of the same compound?
A: > 100 µM (inactive)

Q: And the GI50 (SK-MEL-5)?
A: > 100 µM (inactive)

Q: What about the GI50 (IGROV-1) of the same compound?
A: > 100 µM (inactive)

Q: And the GI50 (SF-268)?
A: > 100 µM (inactive)

Q: And the GI50 (TK-10)?
A: > 100 µM (inactive)

Q: What about the GI50 (EKVX) of the same compound?
A: > 100 µM (inactive)

Q: What about the GI50 (NCI-H460) of the same compound?
A: > 100 µM (inactive)

Q: What about the GI50 (DMS-273) of the same compound?
A: > 100 µM (inactive)

Q: And the GI50 (SR)?
A: > 100 µM (inactive)

Q: And the GI50 (SNB-75)?
A: 41.1 µM (inactive)

Q: And the GI50 (HL-60)?
A: > 100 µM (inactive)

Q: And the GI50 (A498)?
A: > 100 µM (inactive)

Q: What about the GI50 (A549) of the same compound?
A: > 100 µM (inactive)

Q: What about the GI50 (DMS-114) of the same compound?
A: > 100 µM (inactive)

Q: What about the GI50 (U-251) of the same compound?
A: > 100 µM (inactive)

Q: What about the GI50 (SK-MEL-28) of the same compound?
A: > 100 µM (inactive)

Q: What about the GI50 (LOX IMVI) of the same compound?
A: > 100 µM (inactive)

Q: And the GI50 (SF-539)?
A: > 100 µM (inactive)

Q: What about the GI50 (NCI-H226) of the same compound?
A: > 100 µM (inactive)

Q: And the GI50 (ACHN)?
A: > 100 µM (inactive)

Q: What about the GI50 (NCI-H23) of the same compound?
A: > 100 µM (inactive)

Q: And the GI50 (RXF 393)?
A: > 100 µM (inactive)

Q: And the GI50 (Malme-3M)?
A: > 100 µM (inactive)

Q: What about the GI50 (SF-295) of the same compound?
A: > 100 µM (inactive)

Q: What about the GI50 (SW-620) of the same compound?
A: > 100 µM (inactive)

Q: What about the GI50 (CCRF-CEM) of the same compound?
A: > 100 µM (inactive)

Q: And the GI50 (K562)?
A: > 100 µM (inactive)

Q: And the GI50 (HCC 2998)?
A: > 100 µM (inactive)

Q: And the GI50 (HCT-116)?
A: > 100 µM (inactive)

Q: And the GI50 (M14)?
A: > 100 µM (inactive)

Q: What about the GI50 (KM-20L2) of the same compound?
A: > 100 µM (inactive)

Q: And the GI50 (786-0)?
A: > 100 µM (inactive)

Q: And the GI50 (SK-MEL-2)?
A: > 100 µM (inactive)

Q: And the GI50 (OVCAR-4)?
A: > 100 µM (inactive)

Q: And the GI50 (HOP-62)?
A: > 100 µM (inactive)

Q: What about the GI50 (COLO 205) of the same compound?
A: > 100 µM (inactive)

Q: And the GI50 (HT-29)?
A: > 100 µM (inactive)

Q: What about the GI50 (SN12C) of the same compound?
A: > 100 µM (inactive)

Q: What about the GI50 (UACC-257) of the same compound?
A: > 100 µM (inactive)

Q: And the GI50 (HCT-15)?
A: > 100 µM

Q: What about the GI50 (UO-31) of the same compound?
A: > 100 µM (inactive)

Q: What about the GI50 (SNB-19) of the same compound?
A: > 100 µM (inactive)

Q: Which results are given for `C=CCNC(=O)NCCCCC(NC(C)=O)C(=O)NCc1ccccc1` (stereo not drawn)?
A: GI50 (UACC-62): > 100 µM (inactive); GI50 (OVCAR-8): > 100 µM (inactive); GI50 (MOLT-4): > 100 µM (inactive); GI50 (LXFL 529): > 100 µM (inactive); GI50 (OVCAR-3): > 100 µM (inactive); GI50 (SK-OV-3): > 100 µM (inactive); GI50 (XF498): > 100 µM (inactive); GI50 (RPMI-8226): > 100 µM (inactive); GI50 (SK-MEL-5): > 100 µM (inactive); GI50 (IGROV-1): > 100 µM (inactive); GI50 (SF-268): > 100 µM (inactive); GI50 (TK-10): > 100 µM (inactive); GI50 (EKVX): > 100 µM (inactive); GI50 (NCI-H460): > 100 µM (inactive); GI50 (DMS-273): > 100 µM (inactive); GI50 (SNB-75): > 100 µM (inactive); GI50 (HL-60): > 100 µM (inactive); GI50 (A498): > 100 µM (inactive); GI50 (A549): > 100 µM (inactive); GI50 (DMS-114): > 100 µM (inactive); GI50 (U-251): > 100 µM (inactive); GI50 (SK-MEL-28): > 100 µM (inactive); GI50 (LOX IMVI): > 100 µM (inactive); GI50 (SF-539): > 100 µM (inactive); GI50 (NCI-H226): > 100 µM (inactive); GI50 (ACHN): > 100 µM (inactive); GI50 (NCI-H23): > 100 µM (inactive); GI50 (RXF 393): > 100 µM (inactive); GI50 (Malme-3M): > 100 µM (inactive); GI50 (HOP-18): > 100 µM (inactive); GI50 (SF-295): > 100 µM (inactive); GI50 (SW-620): > 100 µM (inactive); GI50 (CAKI-1): > 100 µM (inactive); GI50 (CCRF-CEM): > 100 µM (inactive); GI50 (K562): > 100 µM (inactive); GI50 (OVCAR-5): > 100 µM (inactive); GI50 (HCC 2998): > 100 µM (inactive); GI50 (KM12): > 100 µM (inactive); GI50 (M14): > 100 µM (inactive); GI50 (KM-20L2): > 100 µM (inactive); GI50 (786-0): > 100 µM (inactive); GI50 (SK-MEL-2): > 100 µM (inactive); GI50 (OVCAR-4): > 100 µM (inactive); GI50 (M19-MEL): > 100 µM (inactive); GI50 (HOP-92): > 100 µM (inactive); GI50 (HOP-62): > 100 µM (inactive); GI50 (COLO 205): > 100 µM (inactive); GI50 (HT-29): > 100 µM (inactive); GI50 (NCI-H522): > 100 µM (inactive); GI50 (SN12C): > 100 µM (inactive); GI50 (UACC-257): > 100 µM (inactive); GI50 (HCT-15): > 100 µM; GI50 (UO-31): > 100 µM (inactive); GI50 (SNB-19): > 100 µM (inactive)
